Results from the supplement of paper PMC11451515.

System: P12-Ichikawa
Experiment: cell viability relative to DMSO control; higher = less cytotoxic
Settings: 48 h
Summary of the method: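 Library compounds in DMSO were pin-dosed in an 11-point threefold series (47 μM to 0.79 nM) onto leukemia cells in 1536-well plates (5 μl). Plates held 500 cells/well of NOMO1 or SEM or 1000 cells/well of P12-Ichikawa, each adapted for at least four passages in each medium. Luminescence was read with CellTiter-Glo One after 48 h at 37°C. Viability means the per-plate percentage relative to DMSO wells, using cell-free wells as background.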

[1] = HPLM + 10% dialyzed FBS, 0.000781 µM
[2] = HPLM + 10% dialyzed FBS, 0.00234 µM
[3] = HPLM + 10% dialyzed FBS, 0.00702 µM
[4] = HPLM + 10% dialyzed FBS, 0.0211 µM
[5] = HPLM + 10% dialyzed FBS, 0.0632 µM
[6] = HPLM + 10% dialyzed FBS, 0.19 µM
[7] = HPLM + 10% dialyzed FBS, 0.569 µM
[8] = HPLM + 10% dialyzed FBS, 1.71 µM
[9] = HPLM + 10% dialyzed FBS, 5.12 µM
[10] = HPLM + 10% dialyzed FBS, 15.4 µM
[11] = HPLM + 10% dialyzed FBS, 46.1 µM
[12] = RPMI 5 mM glucose + 10% FBS, 0.000781 µM
[13] = RPMI 5 mM glucose + 10% FBS, 0.00234 µM
[14] = RPMI 5 mM glucose + 10% FBS, 0.00702 µM
[15] = RPMI 5 mM glucose + 10% FBS, 0.0211 µM
[16] = RPMI 5 mM glucose + 10% FBS, 0.0632 µM
[17] = RPMI 5 mM glucose + 10% FBS, 0.19 µM
[18] = RPMI 5 mM glucose + 10% FBS, 0.569 µM
[19] = RPMI 5 mM glucose + 10% FBS, 1.71 µM
[20] = RPMI 5 mM glucose + 10% FBS, 5.12 µM
[21] = RPMI 5 mM glucose + 10% FBS, 15.4 µM
[22] = RPMI 5 mM glucose + 10% FBS, 46.1 µM
[23] = RPMI 5 mM glucose + 10% dialyzed FBS, 0.000781 µM
[24] = RPMI 5 mM glucose + 10% dialyzed FBS, 0.00234 µM
[25] = RPMI 5 mM glucose + 10% dialyzed FBS, 0.00702 µM
[26] = RPMI 5 mM glucose + 10% dialyzed FBS, 0.0211 µM
[27] = RPMI 5 mM glucose + 10% dialyzed FBS, 0.0632 µM
[28] = RPMI 5 mM glucose + 10% dialyzed FBS, 0.19 µM
[29] = RPMI 5 mM glucose + 10% dialyzed FBS, 0.569 µM
[30] = RPMI 5 mM glucose + 10% dialyzed FBS, 1.71 µM
[31] = RPMI 5 mM glucose + 10% dialyzed FBS, 5.12 µM
[32] = RPMI 5 mM glucose + 10% dialyzed FBS, 15.4 µM
[33] = RPMI 5 mM glucose + 10% dialyzed FBS, 46.1 µM

SMILES | cell viability [1] | cell viability [2] | cell viability [3] | cell viability [4] | cell viability [5] | cell viability [6] | cell viability [7] | cell viability [8] | cell viability [9] | cell viability [10] | cell viability [11] | cell viability [12] | cell viability [13] | cell viability [14] | cell viability [15] | cell viability [16] | cell viability [17] | cell viability [18] | cell viability [19] | cell viability [20] | cell viability [21] | cell viability [22] | cell viability [23] | cell viability [24] | cell viability [25] | cell viability [26] | cell viability [27] | cell viability [28] | cell viability [29] | cell viability [30] | cell viability [31] | cell viability [32] | cell viability [33]
COC(=O)N[C@H](C(=O)N[C@@H](Cc1ccccc1)[C@@H](O)CN(Cc1ccc(-c2ccccn2)cc1)NC(=O)[C@@H](NC(=O)OC)C(C)(C)C)C(C)(C)C | 118% | 107% | 102% | 107% | 124% | 118% | 102% | 105% | 107% | 101% | 25.4% | 102% | 117% | 116% | 107% | 112% | 117% | 114% | 116% | 122% | 113% | 108% | 98.9% | 111% | 112% | 113% | 113% | 107% | 103% | 99.2% | 94.7% | 98.2% | 86.4%
c1cc(OCCN2CCCCC2)cc(-c2n[nH]c3ccc(-c4nc[nH]n4)cc23)c1 | 109% | 114% | 110% | 116% | 117% | 118% | 121% | 116% | 122% | 123% | 124% | 112% | 111% | 118% | 116% | 123% | 114% | 114% | 132% | 128% | 128% | 111% | 99.4% | 111% | 114% | 19.2% | 117% | 116% | 121% | 115% | 108% | 123% | 116%
N#Cc1c(C2CCNCC2)cc(-c2c(O)cccc2OCC2CC2)nc1N | 113% | 113% | 112% | 110% | 108% | 108% | 106% | 107% | 101% | 106% | 92% | 116% | 125% | 123% | 117% | 109% | 97.2% | 108% | 105% | 105% | 106% | 91.3% | 114% | 116% | 119% | 126% | 105% | 114% | 111% | 107% | 107% | 99.7% | 85.9%
COc1ccc(-c2nc3cc(C4=NNC(=O)CC4C)ccc3[nH]2)cc1 (stereo unspecified) | 104% | 105% | 109% | 113% | 107% | 114% | 108% | 114% | 105% | 106% | 98.7% | 103% | 110% | 110% | 111% | 115% | 105% | 108% | 105% | 113% | 111% | 117% | 88.3% | 98.5% | 104% | 103% | 108% | 93.2% | 102% | 104% | 109% | 110% | 84.1%
Nc1ccc([S+](=O)([O-])Nc2ccccn2)cc1 | 117% | 116% | 115% | 123% | 117% | 117% | 130% | 119% | 115% | 120% | 125% | 105% | 105% | 113% | 117% | 118% | 112% | 121% | 116% | 127% | 123% | 127% | 113% | 117% | 116% | 113% | 119% | 115% | 125% | 119% | 124% | 131% | 127%
Cn1c(=O)c2c(ncn2CC(O)CO)n(C)c1=O (stereo unspecified) | 113% | 112% | 110% | 111% | 114% | 116% | 115% | 111% | 108% | 117% | 124% | 109% | 104% | 118% | 119% | 124% | 122% | 127% | 117% | 128% | 134% | 128% | 112% | 114% | 114% | 116% | 114% | 115% | 124% | 117% | 125% | 126% | 119%
O=C1[O][Pt]2([NH]C3CCCCC3[NH]2)[O]C1=O (stereo unspecified) | 19.4% | 112% | 115% | 111% | 118% | 113% | 118% | 114% | 62.4% | 2.95% | 3.39% | 106% | 109% | 106% | 118% | 115% | 123% | 128% | 117% | 70% | 3.56% | 2.67% | 111% | 115% | 121% | 119% | 119% | 113% | 114% | 113% | 79% | 7.33% | 2.85%
Cn1cc(-c2ccc3ncc(Cc4ccc5ncccc5c4)n3n2)cn1 | 96.8% | 105% | 107% | 107% | 105% | 104% | 113% | 107% | 105% | 107% | 100% | 102% | 108% | 100% | 103% | 102% | 109% | 111% | 107% | 106% | 104% | 102% | 103% | 119% | 112% | 109% | 110% | 104% | 115% | 114% | 102% | 98.7% | 110%
C[Se]CCC(N)C(=O)O (stereo unspecified) | 88.7% | 86.3% | 89.6% | 84.9% | 88.4% | 85.1% | 87.4% | 88.7% | 78.8% | 78.8% | 78.6% | 77.1% | 84.8% | 81.9% | 82.6% | 85.9% | 84.4% | 81.6% | 79.6% | 83.1% | 79% | 75.6% | 85.9% | 77.2% | 83.2% | 85.1% | 88.2% | 85.8% | 74.9% | 76.4% | 80.7% | 78.1% | 79%
O=C(c1ccc(F)cc1)C1CCN(CCn2c(=O)[nH]c3ccccc3c2=O)CC1 | – | – | – | – | – | – | – | – | – | – | – | – | – | – | – | – | – | – | – | – | – | – | 121% | 125% | 118% | 120% | 118% | 121% | 140% | 110% | 116% | 112% | 102%
CC1OC(OC/2=C(/OC3=C(C(=CC(=C3)O)O)C2=O)C4=CC=C(O)C=C4)C(O)C(OC(C)=O)C1OC(C)=O (stereo unspecified) | 112% | 118% | 111% | 116% | 113% | 108% | 108% | 107% | 101% | 103% | 100% | 108% | 114% | 115% | 112% | 120% | 117% | 103% | 108% | 105% | 96.4% | 103% | 114% | 119% | 117% | 115% | 116% | 114% | 109% | 114% | 111% | 103% | 104%
NC/1=N/C(=O)N(/C=C1)[C@H]2CC[C@@H](CO)O2 | 85% | 95.4% | 93.5% | 101% | 95.9% | 102% | 96.1% | 106% | 95.5% | 104% | 37.6% | 88.3% | 87.6% | 88.6% | 94% | 102% | 91.1% | 99.6% | 92.2% | 94.3% | 90.9% | 41.8% | 59.6% | 87.9% | 88.1% | 90.3% | 85.1% | 90.4% | 96.6% | 93.9% | 98.2% | 90.9% | 30%
CCOc1ccccc1OCCNC(C)Cc1ccc(OC)c([S+](N)(=O)[O-])c1 (stereo unspecified) | 88.4% | 104% | 113% | 109% | 103% | 111% | 114% | 105% | 104% | 108% | 107% | 104% | 111% | 111% | 110% | 114% | 106% | 114% | 114% | 117% | 117% | 114% | 82.8% | 103% | 101% | 104% | 103% | 95.8% | 103% | 112% | 110% | 109% | 102%
N=C(N)c1ccc(OCCCCCOc2ccc(C(=N)N)cc2)cc1 | 101% | 108% | 108% | 110% | 111% | 102% | 101% | 103% | 106% | 97.1% | 79.5% | 104% | 109% | 109% | 114% | 116% | 111% | 107% | 104% | 117% | 85.3% | 62.8% | 101% | 115% | 123% | 125% | 118% | 114% | 118% | 108% | 107% | 102% | 81.5%
CNC(=O)c1cc(Oc2ccc(NC(=O)Nc3cc(C(C)(C)C)nn3-c3ccc4ncccc4c3)c(F)c2)ccn1 | 111% | 120% | 124% | 128% | 139% | 134% | 132% | 131% | 134% | 139% | 125% | – | – | – | – | – | – | – | – | – | – | – | – | – | – | – | – | – | – | – | – | – | –
